Measurements taken from patent publication US20110159122A1, “COMBINATION OF EXTRACTS OF VARIOUS PLANTS FOR IMPROVING THE SYMPTOMS OF DEMENTIA DISORDERS” (Kneipp-Werke Kneipp-Mittel-Zentrale GmbH & Co,KG, priority 2008, published 2011).

Legend:
central nervous system = assay: tele-stereo EEG (electroencephalography) of rats after oral administration; format: in vivo; details: for effect of the compound according to formula I reached by known rooibos constituents: approximately equimolar quantities
Excerpt: In the context of the present invention, the pharmacological activity of the compound according to the invention of formula I was compared with the known constituents of the rooibos extract, such as aspalathin, catechin or (−)-epicatechin.
Since these drugs have a broad spectrum of side effects, the use of a rooibos extract with the compound according to formula I is advantageous as a drug because natural substances can usually be expected to have a lower rate of side effects. […] This is not generally commonplace for flavonoids.

[1] = solubility during the preparation of the HPLC standard solutions; format: physicochemical; details: preparation of the standard solutions for HPLC
monoamine oxidase = details: Plantextrakt, 2005; cited from earlier work

catechin
effect of the compound according to formula I reached by known rooibos constituents (central nervous system): cannot be achieved with approximately equimolar quantities

O=c1cc(-c2ccc(O)cc2)oc2c([C@@H]3O[C@H](CO)[C@@H](O)[C@H](O)[C@H]3O)c(O)cc(O)c12 [vitexin, vitexin(apigenin-8-C-glucoside)]
solubility in standard solutions [1]: exhibited solubility problems

Oc1cc(O)c2c(c1)O[C@H](c1ccc(O)c(O)c1)[C@H](O)C2 [(−)-epicatechin]
effect of the compound according to formula I reached by known rooibos constituents (central nervous system): cannot be achieved with approximately equimolar quantities

O=C(CCc1ccc(O)c(O)c1)c1c(O)cc(O)c([C@@H]2O[C@H](CO)[C@@H](O)[C@H](O)[C@H]2O)c1O [aspalathin]
effect of the compound according to formula I reached by known rooibos constituents (central nervous system): cannot be achieved with approximately equimolar quantities

O=C(CCc1ccc(O)c(O)c1)c1c(O)c(C2OC(CO)C(O)C(O)C2O)c(O)c(C2c3c(O)cc(O)cc3OC(c3ccc(O)c(O)c3)C2O)c1O (centres unmarked) [compound of formula I, aspacat]
crossing of the blood-brain barrier (central nervous system; concluded from the in vivo EEG data): evidently also crosses the blood-brain barrier | discriminant analysis of the in vivo data (central nervous system; rat, in vivo): a relationship with the drugs for the treatment of dementias, Morbus Parkinson, depression and painful conditions | pharmacological activity on the central nervous system in tele-stereo EEG (central nervous system; rats, oral administration): marked pharmacological activity on the central nervous system | changes in the EEG frequencies (central nervous system; rats, oral administration, as known for galantamine, tacrine, L-DOPA, nefopam): dose-dependent changes in the EEG frequencies | pharmacological activity compared with known constituents of the rooibos extract (central nervous system; versus aspalathin, catechin, (−)-epicatechin): higher pharmacological activity than these known constituents of the rooibos extract

O=c1c(O)c(-c2ccc(O)c(O)c2)oc2cc(O)cc(O)c12 [Quercetin]
inhibition of the production of monoamine oxidase (monoamine oxidase): capable of inhibiting the production of monoamine oxidase

O=c1cc(-c2ccc(O)c(O)c2)oc2c([C@@H]3O[C@H](CO)[C@@H](O)[C@H](O)[C@H]3O)c(O)cc(O)c12 [orientin, orientin(luteolin-8-C-glucoside)]
solubility in standard solutions [1]: exhibited solubility problems
